Consider 2 molecules from ChEMBL document CHEMBL3352100, “Visible light-induced nitric oxide release from a novel nitrobenzene derivative cross-conjugated with a coumarin fluorophore” (Bioorg Med Chem Lett, 2014).

Structures are written as SMILES. Activity calls are given as the source filed them. No cut-off for these calls is given here.

Data set [1] is described as follows: Cellular uptake in human HCT116 cell cytoplasm at 100 uM by confocal fluorescence microscopy. The data set is classed as ADME, cell-based. The conditions noted are these: hct-116, 100 µM.
The nature of data set [2]: Induction of nitric oxide release in potassium phosphate buffer at pH 7.35 at 100 uM photoirradiated with 15 mW/cm'2 light for 10 mins by spectrometric analysis in presence of Fe2+/MGD2 complex. Format: physicochemical. The conditions noted are these: pH 7.35, 10 min.
For a further data set, the system named is HCT-116. The data set can be described thus: Induction of nitric oxide release in human HCT116 cells at 25 uM incubated for 3 hrs followed by […] irradiation by DAR-4M/AM staining-based fluorescence microscopy relative to control. Format: functional, cell-based.
Data set [3] in a line: Induction of nitric oxide release in potassium phosphate buffer at pH 7.35 at 500 uM photoirradiated with 190 mW/cm'2 light for 15 mins by LC/ESI-MS analysis in presence of Fe2+/MGD2 complex. The conditions noted are these: pH 7.35, 0.25 h. Format: physicochemical.
Data set [4] is described as follows: Induction of nitric oxide release in potassium phosphate buffer at pH 7.35 at 100 uM photoirradiated with 180 mW/cm'2 light for 15 mins by LC/ESI-MS analysis in presence of Fe2+/MGD2 complex. The data set is classed as physicochemical. Conditions: pH 7.35, 0.25 h.

Consider `Cc1cc(/C=C/c2cc(=O)oc3cc(O)c(Br)cc23)cc(C)c1[N+](=O)[O-]`, for which the Drug uptake entry in data set [1] is listed as “Active”. Besides, the outcome in data set [2] and in data set [3] was Active. Also, in the data set with HCT-116, the result was Active.
For the molecule `CCN(CC)c1ccc2c(C)c(/C=C/c3cc(C)c([N+](=O)[O-])c(C)c3)c(=O)oc2c1`, the Activity result in data set [4] is listed as “Not Active”.
